The record followed here is PMC9949698, “Visible-Light-Controlled Histone Deacetylase Inhibitors for Targeted Cancer Therapy” (Journal of Medicinal Chemistry, 2023).

Read-outs that look alike come from different tables or passages of the source.

One series has as its system HeLa cells. Kind of series: HeLa cell viability, MTS assay, dark or preillumination. Type of series: cell-based. Particulars: for IC50: Homo sapiens, HeLa; for IC50(dark)/IC50(light): Table 5; for activity under dark and illumination conditions: in words. The procedure:
We then proceeded to evaluate the effect of the compounds in a viability assay against HeLa cells.
HeLa, MCF7, and HT29 cells were maintained in adherent cultures in DMEM supplemented with 10% FBS. KG1 cells were maintained in a suspension culture in IMDM supplemented with 20% FBS.
Stock solutions of the compounds were heated to 60 or 80 °C to obtain solutions with the maximum amount of the trans isomer (dark). […] The solutions were then serially diluted with DMEM to give 20 times the desired final concentration, maintaining DMSO at 10%.
Cells were seeded in 96-well black flat bottom plates with a clear bottom at a density of 5 × 10^3 cells/well (HeLa) or 1 × 10^4 cells/well (MCF7, HT29, and KG1), in a volume of 95 μL.
Viability of HeLa, MCF7, and […] cells was determined with a CellTiter 96 assay (Promega), according to the manufacturer’s instructions. Briefly, 20 μL of CellTiter 96 reagent was added to each well, the plates were incubated at 37 °C for 2 h, and the absorbance at 490 nm was recorded. Viability is expressed as a percentage with respect to the nontreated cells.
A general note: Tetrazolium dyes change colour on reduction, which living cells bring about.

The next series deals with T1, human recombinant HDAC1 (Homo sapiens, UniProt Q13547).
T1 construct: purchased BPS Bioscience
As to the kind of experiment: Fluorogenic assay with human recombinant HDAC1, dark or illumination. Type of series: biochemical. To be noted: for relative activity of cis and trans forms: dark vs light, in words. The protocol:
To study the inhibition of HDAC enzymes by the compounds, we used a fluorogenic assay with human recombinant HDAC1.[32] The enzyme was incubated with an acetylated substrate and each inhibitor for 1 h at room temperature, under either dark or light conditions. We opted for illumination throughout the incubation period to maintain the maximum proportion of cis under light conditions. […] Then, the deacetylated substrate generated a fluorescent coumarin after incubation of the mixture with trypsin at 37 °C for 20 min.
Stock solutions of the compounds were diluted to 1 mM in DMSO and then heated to 60 or 80 °C to obtain solutions with the maximum amount of the trans isomer (dark). […] The 1 mM solutions were then serially diluted with HDAC buffer to 10 times the desired concentration, maintaining DMSO at 10%.
In control wells without the compound, inhibitor, or enzyme, HDAC buffer was added instead. […] Then, 50 μL of the stop solution was added and the plates were incubated at 37 °C for 20 min in the dark. Fluorescence was measured at a λem of 460 nm and a λex of 380 nm. Enzyme activity is expressed as a percentage with respect to the nontreated cells, after subtracting the blank (well with no enzyme and no compound).

Series [1] is described as follows: UV–vis spectra and optimal isomerization wavelengths. The class given is physicochemical. To be noted: for λcis (optimal wavelength trans to cis) / λtrans (optimal wavelength cis to trans): UV–vis at 25–50 μM in DMSO, Teleopto plates (Table 1). The procedure: Ultraviolet–visible (UV–vis) spectra were recorded using a Tecan Spark 20M Multimode Microplate reader. Samples (200 μL of compound solution/well) were prepared at […] in DMSO. Samples were measured between 300 and 800 nm with 2 nm fixed intervals in 96-well transparent plates. Illumination at different wavelengths was performed for 2 min using 96-well LED array plates (LEDA Teleopto) placed below the samples. […] Potencies were measured using a Thorlabs PM100D power energy meter connected with a standard photodiode power sensor (S120VC).

A short description of series [2]: E/Z composition under light or temperature conditions by HPLC. Type of series: physicochemical.
Setting [3] is: preillumination 380 nm, 48 h, read-out: IC50 light (concentration that reduces cell viability by half).
[4] abbreviates: supplementary CSV, read-out: HeLa MTS IC50 light.
Where [5] appears, read: dark vs 365 or 380 nm (Table 2), fold.
Where [6] appears, read: dark, 1 h at room temperature (Table 2), read-out: IC50 dark.
[7] abbreviates: illumination 365 or 380 nm, 1 h at room temperature (Table 2), read-out: IC50 light.
Setting [8] is: UV–vis spectra at 25–50 μM in DMSO (Table 1).
Where [9] appears, read: HPLC at isosbestic point (310–338 nm), 100 μM in DMSO after illumination with λcis (Table 1).
Setting [10] is: HPLC at isosbestic point (310–338 nm), 100 μM in DMSO after illumination with λtrans (Table 1).
The mark [11] stands for this setting: UV–vis spectra at 25–100 μM in DMSO (Table 3).
Where [12] appears, read: HPLC at isosbestic point (290–336 nm), 100 μM in DMSO after illumination with λcis (Table 3).
The mark [13] stands for this setting: HPLC at isosbestic point (290–336 nm), 100 μM in DMSO after illumination with λtrans (Table 3).
[14] abbreviates: supplementary CSV, read-out: HDAC1 IC50 light.
[15] abbreviates: dark (Table 4), read-out: IC50 dark.
Setting [16] is: supplementary CSV, read-out: HDAC1 IC50 dark.

T1 sequence (Q13547 whole entry): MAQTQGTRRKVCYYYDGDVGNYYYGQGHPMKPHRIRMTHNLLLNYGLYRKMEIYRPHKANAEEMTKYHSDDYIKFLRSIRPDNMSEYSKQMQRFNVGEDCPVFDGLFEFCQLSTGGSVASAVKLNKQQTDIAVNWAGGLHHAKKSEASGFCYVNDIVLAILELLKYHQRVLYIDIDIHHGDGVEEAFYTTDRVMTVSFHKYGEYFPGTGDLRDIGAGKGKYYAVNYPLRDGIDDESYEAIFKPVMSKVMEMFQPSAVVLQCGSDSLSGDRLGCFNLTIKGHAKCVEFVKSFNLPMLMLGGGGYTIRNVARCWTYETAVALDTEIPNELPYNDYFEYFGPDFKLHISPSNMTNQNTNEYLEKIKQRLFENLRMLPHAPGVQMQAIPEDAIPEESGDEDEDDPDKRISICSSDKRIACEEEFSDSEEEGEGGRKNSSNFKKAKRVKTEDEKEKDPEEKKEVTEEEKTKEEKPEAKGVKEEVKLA

On to `COc1ccc(/N=N/c2ccc(C(=O)NO)cc2)cc1` [Compound 17, (E)-N-Hydroxy-4-((4-methoxyphenyl)diazenyl)benzamide], for which the IC50 in the series on HeLa cells (dark, 48 h, read-out: IC50 dark (concentration that reduces cell viability by half)) is approximately 25 µM; with HeLa cells (setting [3]), approximately 25 µM; with HeLa cells (supplementary CSV, read-out: HeLa MTS IC50 dark), 25 µM; in the series on HeLa cells (setting [4]), 25 µM; at human recombinant HDAC1 (setting [6]), 0.42 µM; at human recombinant HDAC1 (setting [7]) it was 2.9 µM. For the same molecule, the “IC50(dark)/IC50(light)” value is listed as “≈1” in the series on HeLa cells and 0.14 on human recombinant HDAC1 (setting [5]). In addition, the “relative activity of cis and trans forms” value at human recombinant HDAC1 is “more active in the trans form than in the cis form”. Besides, the “λcis (optimal wavelength trans to cis)” value in series [1] was 380 nm. For the same molecule, the “λtrans (optimal wavelength cis to trans)” value in series [1] turned out to be 550 nm. This molecule also gave a λmax trans in series [1] (setting [8]) of 360 nm. In addition, in series [2] (setting [9]), the “% cis at λcis” value turned out to be 84%. Moreover, in series [2] (setting [10]), the “% trans at λtrans” value amounted to 92%.
In series [1] (setting [11]), `COc1cc(Cl)c(/N=N/c2c(Cl)cc(C(=O)Nc3ccccc3N)cc2Cl)c(Cl)c1` [Compound 38b, (E)-N-(2-Aminophenyl)-3,5-dichloro-4-((2,6-dichloro-4-methoxyphenyl)diazenyl)benzamide] registered a λcis of 550 nm, a λmax cis of 452 nm, a λmax trans of 336 nm and a λtrans of 455 nm. Further, the “% cis at λcis” value in series [2] (setting [12]) was found to be 46%. For the same molecule, the “% trans at λtrans” value in series [2] (setting [13]) was determined as 84%.
Regarding `COc1ccc(/N=N/c2ccc(C(=O)Nc3ccccc3N)cc2)cc1` [Compound 18, (E)-N-(2-Aminophenyl)-4-((4-methoxyphenyl)diazenyl)benzamide], the IC50 in the series with HeLa cells (setting [3]) was approximately 19 µM; in the series on HeLa cells (setting [4]) it was 19 µM; on human recombinant HDAC1 (setting [6]) it was 1.2 µM; at human recombinant HDAC1 (setting [7]), 0.2 µM. The “IC50(dark)/IC50(light)” value is more than 5.3 with HeLa cells and 6 on human recombinant HDAC1 (setting [5]). In series [1], the “λcis (optimal wavelength trans to cis)” value is listed as 380 nm. Also, the “λtrans (optimal wavelength cis to trans)” value in series [1] is on record as 550 nm. For the same molecule, the λmax trans in series [1] (setting [8]) worked out at 364 nm. For the same molecule, in series [2] (setting [9]), the “% cis at λcis” value was 82%. Also, the “% trans at λtrans” value in series [2] (setting [10]) came to 79%.
For `COc1cc(Cl)c(/N=N/c2c(Cl)cc(/C=C/C(=O)Nc3ccccc3N)cc2Cl)c(Cl)c1` [Compound 32b, (E)-N-(2-Aminophenyl)-3-(3,5-dichloro-4-((E)-(2,6-dichloro-4-methoxyphenyl)diazenyl)phenyl)acrylamide], the IC50 at human recombinant HDAC1 (continuous illumination 550 nm (Table 4), read-out: IC50 light) is approximately 10 µM. Also, at human recombinant HDAC1 (setting [14]), the IC50 is 10 µM. For the same molecule, in series [1] (setting [11]), the λcis was 550 nm, the λmax cis came out at 452 nm, the λmax trans is 338 nm and the λtrans was determined as 455 nm. In addition, the “% cis at λcis” value in series [2] (setting [12]) amounted to 45%. Also, the “% trans at λtrans” value in series [2] (setting [13]) is given as 88%.
Molecule `CN(C)c1ccc(/N=N/c2ccc(C(=O)NO)cc2)cc1` [Compound 19, (E)-4-((4-(Dimethylamino)phenyl)diazenyl)-N-hydroxybenzamide] yielded a λmax trans in series [1] (setting [8]) of 446 nm.
Turning to `CN(C)c1cc(F)c(/N=N/c2c(F)cc(/C=C/C(=O)Nc3ccccc3N)cc2F)c(F)c1` [Compound 33a, (E)-N-(2-Aminophenyl)-3-(4-((E)-(4-(dimethylamino)-2,6-difluorophenyl)diazenyl)-3,5-difluorophenyl)acrylamide], in the series with HeLa cells, the “activity under dark and illumination conditions” value is “inactive”. On human recombinant HDAC1 (10 μM, dark), the “activity at the highest tested concentration in the dark” value is listed as “no or little activity”. The “IC50(dark)/IC50(light)” value at human recombinant HDAC1 (Table 4) was more than 8.3. Besides, the “IC50 under illumination, in words” value at human recombinant HDAC1 (continuous illumination) is on record as “low micromolar range”. In series [1] (setting [11]), this molecule displayed a λcis of 420 nm, a λmax trans of 430 nm and a λtrans of 550 nm.
Take `CN(C)c1ccc(/N=N/c2ccc(/C=C/C(=O)Nc3ccccc3N)cc2)cc1` [Compound 12, (E)-N-(2-Aminophenyl)-3-(4-((E)-(4-(dimethylamino)phenyl)diazenyl)phenyl)acrylamide]: the “λcis (optimal wavelength trans to cis)” value in series [1] was 470 nm. The same molecule yielded a λmax trans in series [1] (setting [8]) of 462 nm.
As to `COc1ccc(/N=N/c2ccc(CCC(=O)Nc3ccccc3N)cc2)cc1` [Compound 21, (E)-N-(2-Aminophenyl)-3-(4-((4-methoxyphenyl)diazenyl)phenyl)propanamide], the “IC50(dark)/IC50(light)” value on human recombinant HDAC1 (setting [5]) is more than 2.9. For the same molecule, on human recombinant HDAC1, the “relative activity of cis and trans forms” value was “active only in the cis form”. The IC50 is more than 10 µM at human recombinant HDAC1 (setting [6]) and 3.4 µM at human recombinant HDAC1 (setting [7]). The “λcis (optimal wavelength trans to cis)” value in series [1] was 380 nm. The “λtrans (optimal wavelength cis to trans)” value in series [1] came to 550 nm. Moreover, the λmax trans in series [1] (setting [8]) is listed as 354 nm. Also, the “% cis at λcis” value in series [2] (setting [9]) was determined as 87%. The “% trans at λtrans” value in series [2] (setting [10]) worked out at 84%.
With `COc1ccc(/N=N/c2ccc(/C=C/C(=O)Nc3ccccc3N)cc2F)c(F)c1` [Compound 32d, (E)-N-(2-Aminophenyl)-3-(3-fluoro-4-((E)-(2-fluoro-4-methoxyphenyl)diazenyl)phenyl)acrylamide], the “IC50(dark)/IC50(light)” value at human recombinant HDAC1 (Table 4) is “≈22”. Also, the IC50 on human recombinant HDAC1 (setting [15]) is approximately 10 µM. In addition, the IC50 at human recombinant HDAC1 (setting [16]) came out at 10 µM. Also, in series [1] (setting [11]), the λcis stood at 380 nm, the λmax cis is 448 nm, the λmax trans is given as 388 nm and the λtrans stood at 550 nm. The “% cis at λcis” value in series [2] (setting [12]) turned out to be 67%. For the same molecule, the “% trans at λtrans” value in series [2] (setting [13]) was found to be 59%.
For `CN(C)c1cc(Cl)c(/N=N/c2c(Cl)cc(/C=C/C(=O)Nc3ccccc3N)cc2Cl)c(Cl)c1` [Compound 33b, (E)-N-(2-Aminophenyl)-3-(3,5-dichloro-4-((E)-(2,6-dichloro-4-(dimethylamino)phenyl)diazenyl)phenyl)acrylamide], the “activity under dark and illumination conditions” value in the series with HeLa cells was “inactive”. Besides, the “IC50(dark)/IC50(light)” value on human recombinant HDAC1 (Table 4) is reported as more than 2. In addition, the IC50 on human recombinant HDAC1 (setting [15]) is more than 10 µM. In addition, in series [1] (setting [11]), the λcis is reported as 420 nm, the λmax trans is 412 nm and the λtrans stood at 550 nm.
Take `COc1ccc(/N=N/c2ccc(/C=C/C(=O)Nc3ccccc3N)cc2Cl)c(Cl)c1` [Compound 32e, (E)-N-(2-Aminophenyl)-3-(3-chloro-4-((E)-(2-chloro-4-methoxyphenyl)diazenyl)phenyl)acrylamide]: the IC50 on human recombinant HDAC1 (continuous illumination 380 nm (Table 4), read-out: IC50 light) is more than 10 µM. For the same molecule, at human recombinant HDAC1 (setting [15]), the IC50 was more than 10 µM. In addition, the IC50 at human recombinant HDAC1 (setting [16]) is more than 10 µM. Also, the IC50 on human recombinant HDAC1 (setting [14]) is more than 10 µM. In addition, in series [1] (setting [11]), the λcis worked out at 380 nm, the λmax cis turned out to be 464 nm, the λmax trans was found to be 396 nm and the λtrans is given as 455 nm. The “% cis at λcis” value in series [2] (setting [12]) was determined as 64%. The “% trans at λtrans” value in series [2] (setting [13]) turned out to be 62%.
